Test results published in US20200039930A1, “PROLINE AMIDE COMPOUNDS AND THEIR AZETIDINE ANALOGUES CARRYING A SPECIFICALLY SUBSTITUTED BENZYL RADICAL” (AbbVie Deutschland GmbH & Co. KG, priority 2017, published 2020).
pEC50: −log10 of the molar value.

Experiments:
5-HT2C receptor = target: T1, 5-HT2C receptor (Homo sapiens, UniProt P28335); test: Human 5-HT2C functional assay (beta-arrestin2 recruitment, U2OS_HTR2C_β-Arrestin cells); assay type: cell-based; conditions: compounds used as acid addition salts; for pEC50: U2OS_HTR2C_β-Arrestin cells, 1.5 h incubation, read-out: EC50 5-HT2C (potency in functional assay); for Emax: relative efficacy vs response to 10 µM 5-HT or maximal effect of 5-HT (100%)
T1 construct: host or cells: U2OS
Protocol: The functional activity of compounds of formula I was assayed by incubation with U2OS_HTR2C_β-Arrestin cells (DiscoverX, 93-0289C3) to induce beta-arrestin2 recruitment to the 5-HT2C receptor. The agonist-induced recruitment and proximity of the receptor and beta-arrestin2 leads to complementation and formation of active β-galactosidase. The enzyme complementation results in enzyme activity, which is measured following the termination of the agonist incubation using DiscoveRx's detection reagent, which contains a chemiluminescent substrate which produces a high intensity signal. Cells were plated and a medium-change to a 1% serum containing medium was performed 24 h later. The next day, test compounds were added and incubated for 1.5 h before addition of detection reagent.
The response produced was measured and compared with the response produced by 10 [mu]M 5-HT or the maximal effect induced by 5-HT (defined as 100%) to which it was expressed as a percentage response (relative efficacy). Dose response curves were con-structed using Graphpad Prism (Graph Software Inc.) or using in house adapted software using a 4 parameter dose response model with variable slope (fit=(Bottom+(Top−Bottom)/(1+10^((LogEC50−x)*Hill Slope))res=(y−fit)). Results are compiled in the table below.

[1] = Metabolic stability: unbound intrinsic clearance in liver microsomes; assay type: in vitro ADME; conditions: rat; liver microsomes 0.25 mg protein/mL, 0.5 μM compound, pH 7.4, 37° C.; Cl int unbound=Cl int/fu mic; compounds used as acid addition salts; read-out: Cl int, mic unb. (r) (unbound intrinsic clearance)
Protocol: Samples of the tested compounds (0.5 μM) were preincubated together with rat liver microsomes (0.25 mg of microsomal protein/mL) in 0.05 M potassium phosphate buffer of pH 7.4 in microtiter plates at 37° C. for 5 minutes. The reaction was started by adding NADPH (1.0 mM). After 0, 5, 10, 15, 20 and 30 minutes, an aliquot was removed, the reaction was cooled and stopped by adding twice the amount of quench solution consisting of acetonitrile/methanol 1:1, and containing […] carbutamide as internal standard. The samples were frozen until analyzed. The remaining concentration of undegraded test substance was determined by liquid chromatography-tandem mass spectrometry (LC-MS/MS). The half-life (t1/2) was determined from the gradient of the ratio of the signal of (test substance/internal standard)/unit time plot, allowing the calculation of the half-life of the test substance, assuming first order kinetics, from the decrease in the concentration of the compound with time. The microsomal clearance (mClint) was calculated as follows: mClint=((ln(2)/t 1/2)/Microsomal Protein Concentration (mg/ml))*1000, leading to the unit of uL/min/mg. The scaled clearance (mClin_scaled) was calculated as mCLint_scaled=m CLint*(Microsomal Yield (mg/kg BW))/1000000*60, leading to the units L/h/kg. The Microsomal Yield is defined by the specifics of the used microsomes. Calculations were modified from refer-ences: Di, The Society for Biomolecular Screening, 2003, 453-462; Obach, D M D, 1999 vol 27. N 11, 1350-1359.
A suspension of 0.25 mg/ml microsomal protein spiked with 0.5 μM of test compound was pipetted on one side of a HTDialysis device (HTDialysis LLC,37 Ledgewood Drive, Gales Fery Conn. 06335) separated by a membrane with a MWcut off 12-14 K. 50 mM K-Phosphate buffer (pH 7.4) was added on the other side of the well. After incubation at 37° C. for 4 h while shaking at 150 rpm, aliquots of both sides were taken, quenched with MeOH/ACN 1:1 and 0.2 μM of internal standard and frozen until analy-sis by LCMSMS.
Cl int unbound=Cl int/fu mic
The compounds were used in form of their respective acid addition salts.

T1 sequence (P28335 33-458): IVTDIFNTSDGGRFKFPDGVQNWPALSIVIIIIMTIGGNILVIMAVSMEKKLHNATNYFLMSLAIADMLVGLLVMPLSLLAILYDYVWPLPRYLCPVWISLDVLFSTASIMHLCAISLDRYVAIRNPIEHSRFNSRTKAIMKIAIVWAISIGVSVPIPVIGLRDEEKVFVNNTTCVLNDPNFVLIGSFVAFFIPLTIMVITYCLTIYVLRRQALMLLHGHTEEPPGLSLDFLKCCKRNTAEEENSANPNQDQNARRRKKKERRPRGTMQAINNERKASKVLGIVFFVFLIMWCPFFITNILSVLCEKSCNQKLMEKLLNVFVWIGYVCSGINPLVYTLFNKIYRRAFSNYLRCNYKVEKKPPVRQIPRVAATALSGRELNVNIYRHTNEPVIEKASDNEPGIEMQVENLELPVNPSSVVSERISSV
T1 sequence (P32121 whole entry partner): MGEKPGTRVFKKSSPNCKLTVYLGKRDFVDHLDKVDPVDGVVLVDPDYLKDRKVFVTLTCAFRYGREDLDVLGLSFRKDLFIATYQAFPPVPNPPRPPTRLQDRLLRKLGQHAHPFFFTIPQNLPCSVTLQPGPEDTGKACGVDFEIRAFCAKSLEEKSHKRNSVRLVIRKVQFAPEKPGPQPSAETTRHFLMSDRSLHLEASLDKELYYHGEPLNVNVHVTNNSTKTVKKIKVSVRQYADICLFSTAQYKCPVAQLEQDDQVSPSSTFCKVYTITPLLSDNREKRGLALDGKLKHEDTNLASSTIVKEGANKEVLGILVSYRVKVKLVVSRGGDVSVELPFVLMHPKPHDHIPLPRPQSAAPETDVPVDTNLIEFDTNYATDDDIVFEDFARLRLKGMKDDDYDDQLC

pEC50 (5-HT2C receptor)	Emax (5-HT2C receptor)	CLint scaled at 0.5 μM [1]	SMILES
7.52 to 7.82	> 70%	< 500 mL/min/kg	COc1cc(OCC2CC2(F)F)c(F)cc1CNC(=O)[C@@H]1CCCN1 (stereo partly drawn) [Example 26, (2S)—N-[[4-[(2,2-Difluorocyclopropyl)methoxy]-5-fluoro-2-methoxy-phenyl]-methyl]pyrrolidine-2-carboxamide]
7.82 to 8.30	> 70%	500 to 1330 mL/min/kg	COc1cc(OCC2(C(F)(F)F)CC2)c(F)cc1CNC(=O)[C@@H]1CCCN1 [Example 27, (2S)—N-[[5-Fluoro-2-methoxy-4-[[1-(trifluoromethyl)cyclopropyl]methoxy]phenyl]-methyl]pyrrolidine-2-carboxamide]
7.82 to 8.30	> 70%	< 500 mL/min/kg	COc1cc(OCC2CC(F)(F)C2)c(F)cc1CNC(=O)[C@@H]1CCCN1 [Example 29, (2S)—N-[[4-[(3,3-Difluorocyclobutyl)methoxy]-5-fluoro-2-methoxy-phenyl]methyl]-pyrrolidine-2-carboxamide]
> 8.30	> 70%	< 500 mL/min/kg	COc1cc(OCC2CC(F)(F)C2(F)F)c(F)cc1CNC(=O)[C@@H]1CCCN1 (stereo partly drawn) [Example 30, (2S)—N-[[5-Fluoro-2-methoxy-4-[(2,2,3,3-tetrafluorocyclobutyl)methoxy]phenyl]-methyl]pyrrolidine-2-carboxamide]
7.82 to 8.30	> 70%	< 500 mL/min/kg	COc1cc(OCC2CCC(F)(F)C2)c(F)cc1CNC(=O)[C@@H]1CCCN1 (stereo partly drawn) [Example 31, (2S)—N-[[4-[(3,3-Difluorocyclopentyl)methoxy]-5-fluoro-2-methoxy-phenyl]methyl]-pyrrolidine-2-carboxamide]
7.82 to 8.30	> 70%	< 500 mL/min/kg	COc1cc(OCC2CCC(F)(F)CC2)c(F)cc1CNC(=O)[C@@H]1CCCN1 [Example 32, (2S)—N-[[4-[(4,4-Difluorocyclohexyl)methoxy]-5-fluoro-2-methoxy-phenyl]methyl]-pyrrolidine-2-carboxamide]
> 8.30	> 70%	< 500 mL/min/kg	COc1cc(O[C@H]2CC[C@H](C(F)(F)F)CC2)c(F)cc1CNC(=O)[C@@H]1CCCN1 [Example 33, (S)—N-(5-Fluoro-4-((trans-4-trifluoromethyl-cyclohexyl)oxy)-2-methoxybenzyl)-pyrrolidine-2-carboxamide]
7.82 to 8.30	> 70%	1330 to 4170 mL/min/kg	COc1cc(O[C@H]2CC[C@@H](C(F)(F)F)CC2)c(F)cc1CNC(=O)[C@@H]1CCCN1 [Example 34, (S)—N-(5-Fluoro-4-((cis-4-trifluoromethyl-cyclohexyl)oxy)-2-methoxybenzyl)-pyrrolidine-2-carboxamide]
> 8.30	> 70%	500 to 1330 mL/min/kg	COc1cc(OC2CCCC(C(F)(F)F)C2)c(F)cc1CNC(=O)[C@@H]1CCCN1 (stereo partly drawn) [Example 35, (2S)—N-[[5-Fluoro-2-methoxy-4-[3-(trifluoromethyl)cyclohexoxy]phenyl]methyl]-pyrrolidine-2-carboxamide]
7.52 to 7.82	> 70%	500 to 1330 mL/min/kg	COc1cc(OCC(F)(F)C(F)F)c(F)cc1CNC(=O)[C@@H]1CCCN1C [Example 36, (2S)—N-[[5-Fluoro-2-methoxy-4-(2,2,3,3-tetrafluoropropoxy)phenyl]methyl]-1-methyl-pyrrolidine-2-carboxamide]
7.52 to 7.82	> 70%	1330 to 4170 mL/min/kg	COc1cc(OCC2CCC(F)(F)C2)c(F)cc1CNC(=O)[C@@H]1CCCN1C (stereo partly drawn) [Example 38, (2S)—N-[[4-[(3,3-Difluorocyclopentyl)methoxy]-5-fluoro-2-methoxy-phenyl]methyl]-1-methyl-pyrrolidine-2-carboxamide]
7.52 to 7.82	> 70%	500 to 1330 mL/min/kg	COc1cc(O[C@H]2CC[C@H](C(F)(F)F)CC2)c(F)cc1CNC(=O)[C@@H]1CCCN1C [Example 39, (2S)—N-(5-Fluoro-2-methoxy-4-((trans-4-(trifluoromethyl)cyclohexyl)oxy)benzyl)-1-methyl-pyrrolidine-2-carboxamide]
7.52 to 7.82	> 70%	500 to 1330 mL/min/kg	COc1cc(OC2CCC(F)(F)CC2)c(F)cc1CNC(=O)[C@@H]1CCCN1C [Example 40, (2S)—N-[[4-(4,4-Difluorocyclohexoxy)-5-fluoro-2-methoxy-phenyl]methyl]-1-methyl-pyrrolidine-2-carboxamide]
> 8.30	50 to 70%	< 500 mL/min/kg	COc1cc(O[C@H]2CC[C@H](C(F)(F)F)CC2)c(F)cc1CNC(=O)[C@@H]1CCN1 [Example 41, (2S)—N-[[5-Fluoro-2-methoxy-4-[trans 4-(trifluoromethyl)cyclohexoxy]phenyl]-methyl]azetidine-2-carboxamide]
> 8.30	> 70%	< 500 mL/min/kg	[2H]C1([2H])NC([2H])(C(=O)NCc2cc(F)c(OC3CCC(C(F)(F)F)CC3)cc2OC)C([2H])([2H])C1([2H])[2H] (stereo not drawn) [Example 42, 2,3,3,4,4,5,5-Heptadeuterio-N-[[5-fluoro-2-methoxy-4-[4-(trifluoromethyl)cyclohexoxy]phenyl]methyl]pyrrolidine-2-carboxamide]
7.52 to 7.82	> 70%	< 500 mL/min/kg	COc1cc(OC2CCC(CF)CC2)c(F)cc1CNC(=O)[C@@H]1CCCN1 (stereo partly drawn) [Example 43, (2S)—N-[[5-Fluoro-4-[4-(fluoromethyl)cyclohexoxy]-2-methoxy-phenyl]methyl]-pyrrolidine-2-carboxamide]

SMILES	pEC50 (5-HT2C receptor)	Emax (5-HT2C receptor)	CLint scaled at 0.5 μM [1]
COc1cc(OCCC(F)(F)C(F)(F)F)c(F)cc1CNC(=O)[C@@H]1CCCN1 [Example 24, (2S)—N-[[5-Fluoro-2-methoxy-4-(3,3,4,4,4-pentafluorobutoxy)phenyl]methyl]-pyrrolidine-2-carboxamide]	7.82 to 8.30	> 70%	< 500 mL/min/kg
COc1cc(OCC(C)CC(F)(F)F)c(F)cc1CNC(=O)[C@@H]1CCCN1 (stereo partly drawn) [Example 25, (2S)—N-[[5-Fluoro-2-methoxy-4-(4,4,4-trifluoro-2-methyl-butoxy)phenyl]methyl]-pyrrolidine-2-carboxamide]	> 8.30	> 70%	500 to 1330 mL/min/kg
COc1cc(OC2CC(F)(F)C2)c(F)cc1CNC(=O)[C@@H]1CCCN1 [Example 28, (2S)—N-[[4-(3,3-Difluorocyclobutoxy)-5-fluoro-2-methoxy-phenyl]methyl]-pyrrolidine-2-carboxamide]	7.82 to 8.30	> 70%	< 500 mL/min/kg
COc1cc(OC2CC(F)(F)C2)c(F)cc1CNC(=O)[C@@H]1CCCN1C [Example 37, (2S)—N-[[4-(3,3-Difluorocyclobutoxy)-5-fluoro-2-methoxy-phenyl]methyl]-1-methyl-pyrrolidine-2-carboxamide]	7.82 to 8.30	> 70%	500 to 1330 mL/min/kg
